Data set [1] relates to Acinetobacter baumannii (CIP 110431). The class given is cell-based.
For data set [2], the system named is Citrobacter farmeri (ATCC 51633). The format is cell-based.
The subject of data set [3] is Citrobacter rodentium (ATCC 51116). The format is cell-based.
In data set [4] the test system is Escherichia coli (ATCC 8739). The format is cell-based.
For data set [5], the system named is Klebsiella pneumoniae (DSMZ 26371). The class given is cell-based.
The test system of data set [6] is Klebsiella variicola (DSM 15968). The class given is cell-based.
Data set [7] relates to Pseudomonas aeruginosa (CIP 107398). The class given is cell-based.
The subject of data set [8] is Salmonella enterica (CIP 80.39). The format is cell-based.
The subject of data set [9] is Shigella flexneri (ATCC 12022). The format is cell-based.
The test system of data set [10] is Bacteroides thetaioataomicron (DSM 2255). The data set is described as follows: microbe, parasite or virus in culture. The class given is cell-based.
The subject of data set [11] is Helicobacter pylori (ATCC 43504). Description: microbe, parasite or virus in culture. The class given is cell-based.
Data set [12] deals with Arthrobacter gandavensis (DSM 2447). The format is cell-based.
The subject of another data set is Bacillus cereus (DSM 31). The format is cell-based.
The test system of data set [13] is Bacillus subtilis (DSM 347). The class given is cell-based.
Data set [14] concerns Lactococcus lactis (DSM 20481). The format is cell-based.
The test system of data set [15] is Listeria monocytogenes (DSM 20600). The format is cell-based.
Data set [16] deals with Micrococcus luteus (DSM 20030). The format is cell-based.
Data set [17] deals with Staphylococcus aureus MRSA USA300 (ATCC BAA-1717). The format is cell-based.
Data set [18] has as its system Staphylococcus aureus (ATCC 6538P). The format is cell-based.
In data set [19] the test system is Clostridium botulinum (DSM 1985). Description: microbe, parasite or virus in culture. The class given is cell-based. The conditions noted are these: Clostridium botulinum, DSM1985.
For data set [20], the system named is Clostridium coccoides (DSM 935). The data set is described as follows: microbe, parasite or virus in culture. The format is cell-based.
Data set [21] relates to Clostridium difficile (DSM 1296). Description: microbe, parasite or virus in culture. The class given is cell-based.
The subject of data set [22] is Clostridium nexile (DSM 1787). The data set is described as follows: microbe, parasite or virus in culture. The class given is cell-based.
Data set [23] concerns Clostridium propionicum (DSM 6251). The data set is described as follows: microbe, parasite or virus in culture. The format is cell-based.
The subject of data set [24] is Enterococcus faecalis (DSM 13591). Description: microbe, parasite or virus in culture. The format is cell-based.
Data set [25] deals with Lactobacillus acidophilus (DSM 20079). The data set is described as follows: microbe, parasite or virus in culture. The class given is cell-based.
The subject of data set [26] is Propionibacterium acnes (ATCC 6919). The data set is described as follows: microbe, parasite or virus in culture. The class given is cell-based.
In data set [27] the test system is Streptococcus pyogenes (DSM 20565). Description: microbe, parasite or virus in culture. The format is cell-based.
The test system of data set [28] is Streptococcus thermophilus (ATCC LMD-9). Description: microbe, parasite or virus in culture. The format is cell-based.
The subject of data set [29] is Mycobacterium smegmatis (ATCC 700084). The format is cell-based.
For data set [30], the system named is Aspergillus flavus (DSM 1959). The format is cell-based.
Data set [31] relates to Aspergillus niger (ATCC 9142). The class given is cell-based.
Data set [32] relates to Aspergillus ochraceus (DSM 824). The class given is cell-based.
Data set [33] concerns Candida albicans (DSM 10697). The class given is cell-based.
Data set [34] relates to Fusarium graminearum (DSM 1095). The format is cell-based. The conditions noted are these: Fusarium graminearum (DSM 1095).
In data set [35] the test system is Fusarium oxysporum (DSM 62316). The class given is cell-based.
Data set [36] has as its system Fusarium verticillioides (DSM 62264). The format is cell-based.
The subject of data set [37] is Caco-2 cells (ATCC HTB-37). Description: cells. Conditions: read-out: IC50 (concentration causing 50% cell death). The format is cell-based, human.
The subject of a further data set is T84 cells (ATCC CCL-248). The data set is described as follows: cells. The class given is cell-based, human. Conditions: read-out: IC50 (concentration causing 50% cell death).
In data set [38] the test system is IPEC-J2 cells. The data set is described as follows: cells. The class given is cell-based, pig. Conditions: read-out: IC50 (concentration causing 50% cell death).
Data set [39] relates to Clostridium perfringens (ATCC 13124). The conditions noted are these: Clostridium perfringens, ATCC13124.
Data set [40] deals with human (Caco-2 and T84) and pig (IPEC-J2) intestinal cells.
Data set [41] relates to IPEC-J2 cells.
The subject of data set [42] is human or porcine intestinal cells grown on inserts.
Data set [43] relates to Clostridium perfringens (ATCC 13124). Description: microbe, parasite or virus in culture. Conditions: ATCC13124.
Data set [44] concerns Clostridium perfringens (ATCC13124). The class given is cell-based.

Structures are written as SMILES. Values after ≈ are worked out from the molar mass of the structure shown. Values joined by “and” are separate entries in the source; they are usually repeats but may differ in a detail not shown here. Equal values may be shown once. Read-outs that look alike come from different tables or passages of the source. A value given as a limit tells only on which side of the number the result lay.

For the molecule `CO/C1=C\C(C)=C\[C@@H](C)[C@@H](O)[C@@H](C)C/C(C)=C/C=C/[C@H](OC)[C@@H]([C@@H](C)[C@@H](O)[C@H](C)[C@@]2(O)C[C@@H](O)[C@H](C)[C@@H](C(C)C)O2)OC1=O` [Bafilomycin A1], the MIC in data set [1] is greater than 100 µM; in [2], 100 µM (≈ 62.3 µg/mL); in data set [3], greater than 100 µM; in data set [4], 25 µM (≈ 15.6 µg/mL); in data set [5] it was 100 µM (≈ 62.3 µg/mL); in [6] it was greater than 100 µM. Besides, the MIC in data set [7] is greater than 100 µM; in [8], greater than 100 µM; in data set [9], greater than 100 µM; in data set [10], greater than 100 µM; in data set [11] it was greater than 100 µM; in data set [12], 3 µM (≈ 1.87 µg/mL). Moreover, the MIC with Bacillus cereus (DSM 31) was 12.5 µM (≈ 7.79 µg/mL); in [13], 100 µM (≈ 62.3 µg/mL); in data set [14] it was 50 µM (≈ 31.1 µg/mL); in data set [15], 25 µM (≈ 15.6 µg/mL); in [16], 25 µM (≈ 15.6 µg/mL); in data set [17] it was greater than 100 µM. In addition, the MIC is 12.5 µM (≈ 7.79 µg/mL) in [18]; 6.25 µM (≈ 3.89 µg/mL) in data set [19]; greater than 100 µM in [20]; greater than 100 µM in data set [21]; 50 µM (≈ 31.1 µg/mL) in data set [22]; 25 µM (≈ 15.6 µg/mL) in data set [23]. Also, the MIC was greater than 100 µM in data set [24]; 33 µM (≈ 20.6 µg/mL) in [25]; 50 µM (≈ 31.1 µg/mL) in data set [26]; 66 µM (≈ 41.1 µg/mL) in data set [27]; 25 µM (≈ 15.6 µg/mL) in [28]; greater than 100 µM in [29]. Also, the MIC in [30] is 3.25 µM (≈ 2.02 µg/mL); in data set [31], greater than 100 µM; in [32] it was greater than 100 µM; in data set [33], greater than 100 µM; in data set [34], 6.25 µM (≈ 3.89 µg/mL); in data set [35], greater than 100 µM. Further, the MIC turned out to be 50 µM (≈ 31.1 µg/mL) in data set [36] and 25 µM (≈ 15.6 µg/mL) in data set [39]. Further, the figures for the IC50 (in data set [37]; in the data set on T84 cells (ATCC CCL-248); with IPEC-J2 cells [38]) were 11.8 µM, 9.9 µM and 1.8 µM, respectively. Further, in [39], the “MIC (mg/L)” value worked out at 15.5 mg/L (≈ 24.9 µM). Also, in data set [40], the “safety factor (IC50 in the toxicity test divided by MIC on Clostridium perfringens ATCC 13124)” value is “less than 1”. Also, the “toxicity to intestinal cells” value in data set [40] is recorded as “toxic”. Besides, the transepithelial electrical resistance in the data set on Caco-2 cells amounted to 112 ohm.cm2; in the data set with T84 cells, 118 ohm.cm2; in the data set on IPEC-J2 cells [41] it was 191 ohm.cm2. In data set [42], the “decrease in transepithelial electrical resistance” value is listed as 61-75%.

As to `CN(C)[C@@H]1C(O)=C(C(N)=O)C(=O)[C@@]2(O)C(O)=C3C(=O)c4c(O)cccc4[C@@](C)(O)[C@H]3C[C@@H]12` [Tetracycline], the MIC in [43] is 11.7 µM and 5.2 µg/mL.

With `Cc1ncc([N+](=O)[O-])n1CCO` [Metronidazole], the MIC in [10] (Bacteroides, DSM2255) was 2.34 µM (≈ 0.401 µg/mL); in data set [11] (Helicobacter pylori, ATCC 21031 / ATCC 43504) it was greater than 1500 µM; in data set [19], 0.29 µM (≈ 0.0496 µg/mL); in data set [20] (Blautia producta, DSM935), 0.29 µM (≈ 0.0496 µg/mL); in [21] (Clostridioides difficile, DSM1296), 1.17 µM (≈ 0.2 µg/mL); in [22] (Faecalimonas nexilis, DSM1787), 2.34 µM (≈ 0.401 µg/mL). Moreover, the MIC in data set [23] (Anaerotignum propionicum, DSM6251) is 1.17 µM (≈ 0.2 µg/mL); in data set [24] (Enterococcus faecalis, DSM13591), greater than 1500 µM; in data set [25] (Lactobacillus acidophilus, DSM20079) it was greater than 1500 µM; in data set [26] (Cutibacterium acnes, ATCC6919), 1500 µM (≈ 257 µg/mL); in data set [27] (Streptococcus pyogenes, DSM20565), greater than 1500 µM; in data set [28] (Streptococcus thermophilus), 1500 µM (≈ 257 µg/mL). For the same molecule, the figures for the “increase in MIC” value in [44] (after 7 days of contact) and in data set [44] (after 9 days of contact) were 10 fold and 50-100 fold, respectively. The IC50 in data set [37] (Homo sapiens, Caco-2, 48 h) was greater than 1500 µM; in the data set on T84 cells (ATCC CCL-248) (Homo sapiens, T84, 48 h), greater than 1500 µM; with IPEC-J2 cells [38] (Sus scrofa, IPEC-J2, 48 h) it was greater than 1500 µM. Also, the “MIC (mg/L)” value in data set [39] came out at 1.60 mg/L (≈ 9.35 µM). Moreover, the “toxicity to intestinal cells” value in data set [40] is “not toxic”. For the same molecule, the transepithelial electrical resistance in the data set on Caco-2 cells (human) is on record as 252 +/− 13.7 ohm.cm2; with T84 cells (human) it was 293 +/− 12.3 ohm.cm2; in the data set on IPEC-J2 cells [41] (pig), 875 +/− 203 ohm.cm2. The “decrease in transepithelial electrical resistance” value in data set [42] (human, pig) is 0-34%.

These data come from US20220133842A1 (priority 2019, published 2022).
